From US20110152298A1, “IMIDAZO [2,1-B] QUINAZOLIN-2-ONE DERIVATIVES AND THEIR USE AS PLATELET ANTI-AGGREGATIVE AGENTS” (SHIRE LLC, priority 2008, published 2011)
pIC50: −log10 of the molar value.

Tests used:
[1] = system: human phosphodiesterase III (PDE III); test: PDE III inhibition; assay type: biochemical
Source text: In early volunteer trials, the most frequently reported adverse effects AEs other than headache were palpitations, postural dizziness and nausea. During patient studies, the most frequently reported drug-related AEs were headache, palpitations, oedema/fluid retention, nausea/vomiting, diarrhea, dizziness and abdominal pain. These effects are all likely to arise from the secondary, cardiovascular pharmacology associated with anagrelide resulting from its inhibitory effects on human phosphodiesterase III (PDE III). […] Inhibition of myocardial PDE III leads to positive inotropy (increasing of the force of contractions of the heart), increased chronotropy (increase in heart rate), and peripheral vasodilatation. Such cardiovascular manifestations of this inhibition are typically seen with the classical positive inotropes, milrinone and enoximone, and exploited in the short-term acute treatment of congestive heart failure. However, in the treatment of a so-called silent disease (i.e., asymptomatic) such as ET, the cardiovascular side-effects of palpitations and tachycardia associated with anagrelide limit its utility and a significant proportion of patients—reportedly between 25 and 50%—fail to tolerate the drug during long term treatment.

[2] = Pharmacokinetics of anagrelide and its metabolite; assay type: in vivo, human; conditions: typical exposures, relative to anagrelide
Source text: The PDE III inhibitory properties of anagrelide are quite distinct from its platelet lowering anti-megakaryocytic effects. Indeed studies have shown no correlation between potency as a PDE III inhibitor and anti-megakaryocytic effects for anagrelide and its principal pharmacologically active metabolite, 3-hydroxyanagrelide (3-OH anagrelide or 3-HA, formerly known as SPD604 or BCH24426). […] Anagrelide's active metabolite, 3-HA, is present in vivo in amounts greatly exceeding those of the parent drug with typical exposures being 2-3 fold greater. Thus by implication 3-OH anagrelide is likely to be a major contributor to the pharmacological actions of the drug.
The metabolism of anagrelide generally proceeds extremely rapidly, resulting in a less than ideal pharmacokinetic profile of the drug. […] This, combined with the side-effects profile, can lead to poor patient compliance. Furthermore, anagrelide undergoes a large first pass effect (>50%) leading to considerable intersubject variation in achieved exposures and, therefore, potentially variable drug response. Also, exposure to the pharmacologically active metabolite varies dramatically between patients since its formation is dependent on CYP1A, an enzyme whose expression is highly dependent on exposure to inducing agents such as cigarette smoke. […]

[3] = in vivo; cited from earlier work
[4] = system: human megakaryocytopoiesis; conditions: cited from earlier work
[5] = system: erythroid or myelomonocytic differentiation; conditions: stimulated by erythropoietin or granulocyte-macrophage colony-stimulating factor; cited from earlier work
platelet count = conditions: patients with thrombocythemia secondary to a myeloproliferative disorder; cited from earlier work
[6] = target: human phosphodiesterase III (PDE III); conditions: cited from earlier work

Compound: O=C1NC2=Nc3ccc(Cl)c(Cl)c3CN2C1O (stereo not shown) [3-hydroxyanagrelide]
- potency as PDE III inhibitor relative to anagrelide [1]: over 40 fold
- exposure in vivo relative to parent drug [2]: 2-3 fold
- typical half-life [3]: 2.5 h
- potency of inhibition of megakaryocytopoiesis relative to parent drug ([4]; relative to anagrelide): no more potent than the parent drug

Compound: O=C1CN2Cc3c(ccc(Cl)c3Cl)N=C2N1 [Anagrelide, 6,7-dichloro-1,5-dihydroimidazo[2,1-b]-quinazolin-2(3H)-one]
- effect on erythroid or myelomonocytic differentiation [5]: does not affect
- time to complete response (platelet count ≦600×10^9/L) (platelet count): 4 to 12 weeks
- first pass effect [3]: > 50%
- pIC50 [6]: ~7.54
- pIC50 ([4]; TPO-induced, dose-dependent, read-out: estimated IC50, inhibition of TPO-induced megakaryocytopoiesis): ~7.59

Compound: Cc1[nH]c(=O)c(C#N)cc1-c1ccncc1 [milrinone]
- pIC50 [6]: 6.46 to 6.77
